Source: ChEMBL document CHEMBL1201861, “Genomics of Drug Sensitity in Cancer screening data, Wellcome Trust Sanger Institute”

Assays:
GMS-10 = test: cells; format: functional, cell-based; settings: Homo sapiens;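 also: growth inhibition of GMS-10 cells, read out as cell viability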
Description: SANGER: Inhibition of human GMS-10 cell growth in a cell viability assay.

NY = test: cells; format: functional, cell-based; settings: Homo sapiens
Description: SANGER: Inhibition of human NY cell growth in a cell viability assay.

KYSE-270 = test: cells; format: functional, cell-based; settings: Homo sapiens;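 also: cell growth inhibition measured with a viability assay in the human KYSE-270 line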
Description: SANGER: Inhibition of human KYSE-270 cell growth in a cell viability assay.

KYSE-140 = test: cells; format: functional, cell-based; settings: Homo sapiens;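 also: cell viability assay measuring growth inhibition in human KYSE-140 cells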
Description: SANGER: Inhibition of human KYSE-140 cell growth in a cell viability assay.

A-375 = test: cells; format: functional, cell-based; settings: Homo sapiens;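 also: growth inhibition of A375 cells, read out with a cell viability assay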
Description: SANGER: Inhibition of human A375 cell growth in a cell viability assay.

HCC1599 = test: cells; format: functional, cell-based; settings: Homo sapiens;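 also: growth inhibition of HCC1599 cells, read out in a cell viability assay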
Description: SANGER: Inhibition of human HCC1599 cell growth in a cell viability assay.

PF-382 = test: cells; format: functional, cell-based; settings: Homo sapiens
Description: SANGER: Inhibition of human PF-382 cell growth in a cell viability assay.

OPM-2 = test: cells; format: functional, cell-based; settings: Homo sapiens;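 also: growth of OPM-2 cells measured with a viability assay, IC50 for suppression of proliferation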
Description: SANGER: Inhibition of human OPM-2 cell growth in a cell viability assay.

ECC4 = test: cells; format: functional, cell-based; settings: Homo sapiens;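 also: growth inhibition of ECC4 cells, read out with a cell viability assay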
Description: SANGER: Inhibition of human ECC4 cell growth in a cell viability assay.

COR-L23 = test: cells; format: functional, cell-based; settings: Homo sapiens;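 also: cell viability assay measuring how strongly compounds suppress growth of COR-L23 cells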
Description: SANGER: Inhibition of human COR-L23 cell growth in a cell viability assay.

TALL-1 = test: cells; format: functional, cell-based; settings: Homo sapiens;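 also: growth inhibition of cultured human TALL-1 cells, read out by a cell viability assay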
Description: SANGER: Inhibition of human TALL-1 cell growth in a cell viability assay.

HSC-2 = test: cells; format: functional, cell-based; settings: Homo sapiens;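 also: growth inhibition of human HSC-2 cells, read out by a cell viability assay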
Description: SANGER: Inhibition of human HSC-2 cell growth in a cell viability assay.

NUGC-3 = test: cells; format: functional, cell-based; settings: Homo sapiens;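 also: growth inhibition of human NUGC-3 cells, read out with a cell viability assay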
Description: SANGER: Inhibition of human NUGC-3 cell growth in a cell viability assay.

SCLC-21H = test: cells; format: functional, cell-based; settings: Homo sapiens;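 also: growth inhibition of cultured human SCLC-21H cells, read out with a cell viability assay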
Description: SANGER: Inhibition of human SCLC-21H cell growth in a cell viability assay.

MEL-JUSO = test: cells; format: functional, cell-based; settings: Homo sapiens;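 also: growth inhibition of human MEL-JUSO cells, read out with a cell viability assay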
Description: SANGER: Inhibition of human MEL-JUSO cell growth in a cell viability assay.

SK-MES-1 = test: cells; format: functional, cell-based; settings: Homo sapiens;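 also: growth inhibition of human SK-MES-1 cells, read out with a cell viability assay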
Description: SANGER: Inhibition of human SK-MES-1 cell growth in a cell viability assay.

KMS-12-PE = test: cells; format: functional, cell-based; settings: Homo sapiens;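 also: growth inhibition of human KMS-12-PE cells, measured with a cell viability assay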
Description: SANGER: Inhibition of human KMS-12-PE cell growth in a cell viability assay.

U2OS = test: cells; format: functional, cell-based, U-2-OS; settings: Homo sapiens;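 also: growth inhibition of human U-2-OS cells, determined with a cell viability assay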
Description: SANGER: Inhibition of human U-2-OS cell growth in a cell viability assay.

AU565 = test: cells; format: functional, cell-based; settings: Homo sapiens;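 also: cell viability assay measuring growth inhibition of human AU565 cells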
Description: SANGER: Inhibition of human AU565 cell growth in a cell viability assay.

NCI-H2170 = test: cells; format: functional, cell-based; settings: Homo sapiens;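 also: cell viability assay measuring growth inhibition of human NCI-H2170 cancer cells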
Description: SANGER: Inhibition of human NCI-H2170 cell growth in a cell viability assay.

HSC-4 = test: cells; format: functional, cell-based; settings: Homo sapiens;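 also: growth inhibition of human HSC-4 cells, read out with a cell viability assay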
Description: SANGER: Inhibition of human HSC-4 cell growth in a cell viability assay.

HCC1954 = test: cells; format: functional, cell-based; settings: Homo sapiens;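 also: growth inhibition of human HCC1954 cells, read out with a cell viability assay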
Description: SANGER: Inhibition of human HCC1954 cell growth in a cell viability assay.

MDA-MB-361 = test: cells; format: functional, cell-based; settings: Homo sapiens
C32 = test: cells; format: functional, cell-based; settings: Homo sapiens;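 also: cell viability assay, with IC50 reflecting inhibition of C32 cell growth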
Description: SANGER: Inhibition of human C32 cell growth in a cell viability assay.

NCI-H358 = test: cells; format: functional, cell-based; settings: Homo sapiens;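 also: growth inhibition of NCI-H358 human cells, read out with a cell viability assay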
Description: SANGER: Inhibition of human NCI-H358 cell growth in a cell viability assay.

HLE = test: cells; format: functional, cell-based; settings: Homo sapiens;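 also: growth inhibition of human HLE cells, read out by a cell viability assay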
Description: SANGER: Inhibition of human HLE cell growth in a cell viability assay.

KP-N-YN = test: cells; format: functional, cell-based; settings: Homo sapiens;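 also: growth inhibition of KP-N-YN cells, read out with a cell viability assay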
Description: SANGER: Inhibition of human KP-N-YN cell growth in a cell viability assay.

BC-3 = test: cells; format: functional, cell-based; settings: Homo sapiens;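 also: cell viability assay measuring growth inhibition of human BC-3 cells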
Description: SANGER: Inhibition of human BC-3 cell growth in a cell viability assay.

NCCIT = test: SANGER: Inhibition of human NCCIT cell growth in a cell viability assay.; format: functional, cell-based
U-118-MG = test: cells; format: functional, cell-based; settings: Homo sapiens
Description: SANGER: Inhibition of human U-118-MG cell growth in a cell viability assay.

SKG-IIIa = test: cells; format: functional, cell-based; settings: Homo sapiens;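 also: cell growth inhibition, read out with a cell viability assay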
Description: SANGER: Inhibition of human SKG-IIIa cell growth in a cell viability assay.

MKN-7 = test: cells; format: functional, cell-based; settings: Homo sapiens;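 also: growth inhibition of MKN-7 cells, read out with a cell viability assay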
Description: SANGER: Inhibition of human MKN7 cell growth in a cell viability assay.

BL-41 = test: cells; format: functional, cell-based; settings: Homo sapiens;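 also: growth inhibition of human BL-41 cells, read out with a cell viability assay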
Description: SANGER: Inhibition of human BL-41 cell growth in a cell viability assay.

CESS = test: SANGER: Inhibition of human CESS cell growth in a cell viability assay.; format: functional, cell-based
SK-MEL3 = test: cells; format: functional, cell-based, SK-MEL-3; settings: Homo sapiens;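 also: growth inhibition of human SK-MEL-3 cells, read out with a cell viability assay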
Description: SANGER: Inhibition of human SK-MEL-3 cell growth in a cell viability assay.

KOSC-2 = test: cells; format: functional, cell-based; settings: Homo sapiens;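 also: growth inhibition of KOSC-2 cells, read out by a cell viability assay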
Description: SANGER: Inhibition of human KOSC-2 cell growth in a cell viability assay.

CA46 = test: cells; format: functional, cell-based; settings: Homo sapiens;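 also: growth inhibition of human CA46 cells, read out by a cell viability assay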
Description: SANGER: Inhibition of human CA46 cell growth in a cell viability assay.

SIG-M5 = test: cells; format: functional, cell-based; settings: Homo sapiens;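 also: cell viability assay read-out, measuring how strongly growth of cultured human SIG-M5 cells is inhibited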
Description: SANGER: Inhibition of human SIG-M5 cell growth in a cell viability assay.

OVCAR-8 = test: cells; format: functional, cell-based; settings: Homo sapiens;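 also: growth inhibition of human OVCAR-8 cells, read out by a cell viability assay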
Description: SANGER: Inhibition of human OVCAR-8 cell growth in a cell viability assay.

SR = test: cells; format: functional, cell-based; settings: Homo sapiens
Description: SANGER: Inhibition of human SR cell growth in a cell viability assay.

MEL-HO = test: cells; format: functional, cell-based; settings: Homo sapiens
Description: SANGER: Inhibition of human MEL-HO cell growth in a cell viability assay.

NCI-H2405 = test: cells; format: functional, cell-based; settings: Homo sapiens;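 also: growth inhibition of the human cell line, read out with a cell viability assay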
Description: SANGER: Inhibition of human NCI-H2405 cell growth in a cell viability assay.

CAKI-1 = test: cells; format: functional, cell-based; settings: Homo sapiens;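 also: growth inhibition of CAKI-1 cells, measured by a cell viability assay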
Description: SANGER: Inhibition of human CAKI-1 cell growth in a cell viability assay.

KYSE-180 = test: cells; format: functional, cell-based; settings: Homo sapiens;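 also: growth inhibition of KYSE-180 cells, read out with a cell viability assay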
Description: SANGER: Inhibition of human KYSE-180 cell growth in a cell viability assay.

LoVo = test: cells; format: functional, cell-based; settings: Homo sapiens;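 also: growth inhibition of human LoVo cells, read out with a cell viability assay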
Description: SANGER: Inhibition of human LoVo cell growth in a cell viability assay.

SNU-387 = test: cells; format: functional, cell-based; settings: Homo sapiens
Description: SANGER: Inhibition of human SNU-387 cell growth in a cell viability assay.

HOP-92 = test: cells; format: functional, cell-based; settings: Homo sapiens;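 also: cell viability readout, with IC50 reflecting inhibition of HOP-92 cell growth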
Description: SANGER: Inhibition of human HOP-92 cell growth in a cell viability assay.

HT-3 = test: cells; format: functional, cell-based; settings: Homo sapiens;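 also: growth inhibition measured with a cell viability readout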
Description: SANGER: Inhibition of human HT-3 cell growth in a cell viability assay.

HCC1395 = test: cells; format: functional, cell-based; settings: Homo sapiens;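 also: growth inhibition of HCC1395 cells, read out by a cell viability assay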
Description: SANGER: Inhibition of human HCC1395 cell growth in a cell viability assay.

NCI-H2171 = test: cells; format: functional, cell-based; settings: Homo sapiens;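 also: growth inhibition of human NCI-H2171 cells, read out by a cell viability assay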
Description: SANGER: Inhibition of human NCI-H2171 cell growth in a cell viability assay.

HuCCT-1 = test: cells; format: functional, cell-based, HuCCT1; settings: Homo sapiens;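 also: growth inhibition of HuCCT-1 cells, read out by a cell viability assay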
Description: SANGER: Inhibition of human HuCCT1 cell growth in a cell viability assay.

BHY = test: cells; format: functional, cell-based; settings: Homo sapiens;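 also: cell growth inhibition read out by a viability assay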
Description: SANGER: Inhibition of human BHY cell growth in a cell viability assay.

AN3-CA = test: cells; format: functional, cell-based; settings: Homo sapiens;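 also: growth inhibition of human AN3-CA cells measured by a cell viability assay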
Description: SANGER: Inhibition of human AN3-CA cell growth in a cell viability assay.

D-392MG = test: cells; format: functional, cell-based; settings: Homo sapiens
YKG-1 = test: cells; format: functional, cell-based; settings: Homo sapiens;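 also: cell growth inhibition, read out with a viability assay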
Description: SANGER: Inhibition of human YKG-1 cell growth in a cell viability assay.

MFE-280 = test: cells; format: functional, cell-based; settings: Homo sapiens;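 also: growth inhibition of MFE-280 cells, determined with a cell viability readout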
Description: SANGER: Inhibition of human MFE-280 cell growth in a cell viability assay.

NCI-H1417 = test: cells; format: functional, cell-based; settings: Homo sapiens;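 also: human NCI-H1417 cells, growth inhibition determined with a cell viability readout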
Description: SANGER: Inhibition of human NCI-H1417 cell growth in a cell viability assay.

EVSA-T = test: cells; format: functional, cell-based; settings: Homo sapiens;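 also: growth inhibition of EVSA-T cells, read out with a cell viability assay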
Description: SANGER: Inhibition of human EVSA-T cell growth in a cell viability assay.

NCI-H1793 = test: cells; format: functional, cell-based; settings: Homo sapiens;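 also: cell growth inhibition, read out by a cell viability assay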
Description: SANGER: Inhibition of human NCI-H1793 cell growth in a cell viability assay.

SK-MEL-28 = test: cells; format: functional, cell-based; settings: Homo sapiens
Description: SANGER: Inhibition of human SK-MEL-28 cell growth in a cell viability assay.

NCI-N87 = test: cells; format: functional, cell-based; settings: Homo sapiens
Description: SANGER: Inhibition of human NCI-N87 cell growth in a cell viability assay.

HEC-1 = test: cells; format: functional, cell-based; settings: Homo sapiens
Description: SANGER: Inhibition of human HEC-1 cell growth in a cell viability assay.

CAL-27 = test: cells; format: functional, cell-based; settings: Homo sapiens
Description: SANGER: Inhibition of human CAL-27 cell growth in a cell viability assay.

GCT = test: cells; format: functional, cell-based; settings: Homo sapiens
Description: SANGER: Inhibition of human GCT cell growth in a cell viability assay.

T84 = test: cells; format: functional, cell-based; settings: Homo sapiens
Description: SANGER: Inhibition of human T84 cell growth in a cell viability assay.

Question: What does the source list for N#C/C(=C1/Nc2ccccc2S1)c1ccnc(NCCc2cccnc2)n1?
Answer: IC50 (GMS-10): > 8 µM; IC50 (NY): 2.76 µM; IC50 (KYSE-270): 5.97 µM; IC50 (KYSE-140): 1.41 µM; IC50 (A-375): > 8 µM; IC50 (HCC1599): > 8 µM; IC50 (PF-382): > 8 µM; IC50 (OPM-2): > 8 µM; IC50 (ECC4): > 8 µM; IC50 (COR-L23): > 8 µM; IC50 (TALL-1): > 8 µM; IC50 (HSC-2): > 8 µM; IC50 (NUGC-3): > 8 µM; IC50 (SCLC-21H): > 8 µM; IC50 (MEL-JUSO): 3.65 µM; IC50 (SK-MES-1): 3.44 µM; IC50 (KMS-12-PE): > 8 µM; IC50 (U2OS): > 8 µM; IC50 (AU565): 2.55 µM; IC50 (NCI-H2170): > 8 µM; IC50 (HSC-4): > 8 µM; IC50 (HCC1954): > 8 µM; IC50 (MDA-MB-361): 6.49 µM; IC50 (C32): > 8 µM; IC50 (NCI-H358): 1.9 µM; IC50 (HLE): 3.47 µM; IC50 (KP-N-YN): > 8 µM; IC50 (BC-3): 7.46 µM; IC50 (NCCIT): > 8 µM; IC50 (U-118-MG): > 8 µM; IC50 (SKG-IIIa): > 8 µM; IC50 (MKN-7): > 8 µM; IC50 (BL-41): 7.64 µM; IC50 (CESS): > 8 µM; IC50 (SK-MEL3): > 8 µM; IC50 (KOSC-2): > 8 µM; IC50 (CA46): 5.45 µM; IC50 (SIG-M5): > 8 µM; IC50 (OVCAR-8): > 8 µM; IC50 (SR): 1.88 µM; IC50 (MEL-HO): 5.46 µM; IC50 (NCI-H2405): 5.97 µM; IC50 (CAKI-1): 6.48 µM; IC50 (KYSE-180): > 8 µM; IC50 (LoVo): 2.7 µM; IC50 (SNU-387): 3.8 µM; IC50 (HOP-92): > 8 µM; IC50 (HT-3): > 8 µM; IC50 (HCC1395): > 8 µM; IC50 (NCI-H2171): > 8 µM; IC50 (HuCCT-1): 7.65 µM; IC50 (BHY): > 8 µM; IC50 (AN3-CA): 2.59 µM; IC50 (D-392MG): > 8 µM; IC50 (YKG-1): 3.77 µM; IC50 (MFE-280): > 8 µM; IC50 (NCI-H1417): > 8 µM; IC50 (EVSA-T): > 8 µM; IC50 (NCI-H1793): > 8 µM; IC50 (SK-MEL-28): > 8 µM; IC50 (NCI-N87): > 8 µM; IC50 (HEC-1): > 8 µM; IC50 (CAL-27): > 8 µM; IC50 (GCT): 3.6 µM; IC50 (T84): 3.86 µM
